What was measured:
[1] = system: barnyardgrass; assay: Test B flooded paddy test; assay type: in vivo, Echinochloa crus-galli; settings: 1000 g ai/ha, visual rating, scale 0 to 100 (0 no effect, 100 complete control), 13 to 15 days
Outline: (§1)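 Visual ratings, 0 (no effect) to 100 (complete control), made versus controls after 13–15 d greenhouse. Paddy plants treated at 2-leaf stage; postemergence plants at 1- to 4-leaf stage, 2–18 cm tall.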

[2] = system: lambsquarters; assay: Test B pre-/postemergence herbicide test; assay type: in vivo, Chenopodium album; settings: for Plant response rating, Lambsquarters: preemergence; for Lambsquarters plant response rating: postemergence, visual rating, scale 0 (no effect) to 100 (complete control)
Outline: (§2)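 Visual rating, 0 (no effect) to 100 (complete control), versus untreated controls after 13–15 d in greenhouse. Pre- and postemergence applications (postemergence plants 2–18 cm, 1–4 leaves); flooded paddy arm at 2-leaf stage. Compounds in non-phytotoxic solvent plus surfactant.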

[3] = system: small flower umbrella sedge; assay: Test B flooded paddy test; assay type: in vivo, Cyperus difformis; settings: 1000 g ai/ha, visual rating, scale 0 to 100 (0 no effect, 100 complete control), 13 to 15 days
Outline: as §1

[4] = system: corn; assay: Test B pre-/postemergence herbicide test; assay type: in vivo, Zea mays; settings: for Plant response rating, Corn: preemergence; for Corn plant response rating: postemergence, visual rating, scale 0 (no effect) to 100 (complete control)
Outline: as §2

[5] = system: cocklebur; assay: Test B pre-/postemergence herbicide test; assay type: in vivo, Xanthium strumarium; settings: for Plant response rating, Cocklebur: preemergence; for Cocklebur plant response rating: postemergence, visual rating, scale 0 (no effect) to 100 (complete control)
Outline: as §2

[6] = system: morningglory; assay: Test B pre-/postemergence herbicide test; assay type: in vivo, Ipomoea coccinea; settings: for Plant response rating, Morningglory: preemergence; for Morningglory plant response rating: postemergence, visual rating, scale 0 (no effect) to 100 (complete control)
Outline: as §2

[7] = system: ducksalad; assay: Test C flooded paddy test; assay type: in vivo, Heteranthera limosa
[8] = system: giant foxtail; assay: Test B pre-/postemergence herbicide test; assay type: in vivo, Setaria faberi; settings: for Plant response rating, Foxtail, Giant: preemergence; for Foxtail, Giant plant response rating: postemergence, visual rating, scale 0 (no effect) to 100 (complete control)
Outline: as §2

[9] = system: ducksalad; assay: Test B flooded paddy test; assay type: in vivo, Heteranthera limosa; settings: 1000 g ai/ha, visual rating, scale 0 to 100 (0 no effect, 100 complete control), 13 to 15 days
Outline: as §1

[10] = system: barnyardgrass; assay: Test C flooded paddy test; assay type: in vivo, Echinochloa crus-galli
Outline: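 After a postemergence application at 1 to 4 leaves (plants 2–18 cm high), or at 2 leaves for barnyardgrass in flooded paddy, plants stayed in the greenhouse for 12 to 14 days. Damage was then judged visually relative to control plants, with 100 indicating complete control.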

[11] = system: smallflower umbrella sedge; assay: Test C flooded paddy test; assay type: in vivo, Cyperus difformis
[12] = system: rice; assay: Test B flooded paddy test; assay type: in vivo, Oryza sativa; settings: 1000 g ai/ha, visual rating, scale 0 to 100 (0 no effect, 100 complete control), 13 to 15 days
Outline: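 Read-out: visual comparison with controls, scored 0 to 100, where 100 means complete control and 0 no effect. Formulated chemicals were applied postemergence to plants 2–18 cm tall (1- to 4-leaf), or to flooded-paddy plants at the 2-leaf stage, then held 13 to 15 days under glass.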

[13] = system: velvetleaf; assay: Test B pre-/postemergence herbicide test; assay type: in vivo, Abutilon theophrasti; settings: for Plant response rating, Velvetleaf: preemergence; for Velvetleaf plant response rating: postemergence, visual rating, scale 0 (no effect) to 100 (complete control)
Outline: as §2

[14] = system: large crabgrass; assay: Test B pre-/postemergence herbicide test; assay type: in vivo, Digitaria sanguinalis; settings: for Plant response rating, Crabgrass, Large: preemergence; for Crabgrass, Large plant response rating: postemergence, visual rating, scale 0 (no effect) to 100 (complete control)
Outline: as §2

[15] = system: barnyardgrass; assay: Test B pre-/postemergence herbicide test; assay type: in vivo, Echinochloa crus-galli; settings: for Plant response rating, Barnyardgrass: preemergence; for Barnyardgrass plant response rating: postemergence, visual rating, scale 0 (no effect) to 100 (complete control)
Outline: as §2

[16] = system: rice; assay: Test B pre-/postemergence herbicide test; assay type: in vivo, Oryza sativa; settings: 500 g ai/ha; visual rating 0-100, 0 no effect, 100 complete control; preemergence
Outline: as §2

[17] = system: Surinam grass; assay: Test B pre-/postemergence herbicide test; assay type: in vivo, Urochloa decumbens; settings: for Plant response rating, Surinam Grass: preemergence; for Surinam Grass plant response rating: postemergence, visual rating, scale 0 (no effect) to 100 (complete control)
Outline: as §2

[18] = system: rice; assay: Test C flooded paddy test; assay type: in vivo, Oryza sativa
Outline: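 Postemergence sprays applied to plants 2 to 18 cm tall (1- to 4-leaf stage); paddy species grown to 2-leaf stage under flooding. After 12 to 14 days in greenhouse, visual rating versus untreated controls on 0–100 scale (0 no effect, 100 complete control).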

[19] = system: pigweed; assay: Test B pre-/postemergence herbicide test; assay type: in vivo, Amaranthus retroflexus; settings: for Plant response rating, Pigweed: preemergence; for Pigweed plant response rating: postemergence, visual rating, scale 0 (no effect) to 100 (complete control)
Outline: as §2

[20] = 500 g ai/ha, visual rating 0-100, 0 no effect, 100 complete control
[21] = 125 g ai/ha, 0 to 100 scale, 0 is no effect, 100 is complete control
[22] = 62 g ai/ha, scale 0 to 100 (0 no effect, 100 complete control)
[23] = 125 g ai/ha, scale 0 to 100 (0 no effect, 100 complete control)
[24] = 250 g ai/ha, scale of 0 to 100, 0 is no effect, 100 is complete control
[25] = 500 g ai/ha, visual rating after 12 to 14 days, scale 0 to 100 (0 no effect, 100 complete control)

SMILES: C=CCN(C)C(=O)c1ccnc(NC(=O)c2cc(C(C)(C)C)nn2CC)c1 [Compound 159]
- Barnyardgrass plant response rating [1]: 80
- Plant response rating, Lambsquarters [2, 20]: 100
- Lambsquarters plant response rating ([2]; 125 g ai/ha): 90
- Lambsquarters plant response rating ([2]; 500 g ai/ha): 90
- Plant response rating, Lambsquarters [2, 21]: 100
- Sedge, Umbrella plant response rating [3]: 70
- Plant response rating, Corn [4, 20]: 0
- Corn plant response rating ([4]; 125 g ai/ha): 0
- Corn plant response rating ([4]; 500 g ai/ha): 0
- Plant response rating, Corn [4, 21]: 0
- Plant response rating, Cocklebur [5, 20]: 100
- Cocklebur plant response rating ([5]; 125 g ai/ha): 80
- Cocklebur plant response rating ([5]; 500 g ai/ha): 80
- Plant response rating, Cocklebur [5, 21]: 90
- Plant response rating, Morningglory [6, 20]: 40
- Morningglory plant response rating ([6]; 125 g ai/ha): 10
- Morningglory plant response rating ([6]; 500 g ai/ha): 10
- Plant response rating, Morningglory [6, 21]: 30
- Ducksalad plant response rating [7, 22]: 80
- Ducksalad plant response rating [7, 23]: 90
- Ducksalad plant response rating [7, 24]: 90
- Plant response rating, Ducksalad [7, 25]: 100
- Plant response rating, Foxtail, Giant [8, 20]: 60
- Foxtail, Giant plant response rating ([8]; 125 g ai/ha): 40
- Foxtail, Giant plant response rating ([8]; 500 g ai/ha): 50
- Plant response rating, Foxtail, Giant [8, 21]: 50
- Ducksalad plant response rating [9]: 90
- Barnyardgrass plant response rating [10, 22]: 30
- Barnyardgrass plant response rating ([10]; 125 g ai/ha, scale of 0 to 100, 0 is no effect, 100 is complete control): 50
- Barnyardgrass plant response rating [10, 24]: 70
- Plant response rating, Barnyardgrass [10, 25]: 80
- Sedge, Umbrella plant response rating [11, 22]: 10
- Sedge, Umbrella plant response rating [11, 23]: 40
- Sedge, Umbrella plant response rating [11, 24]: 60
- Plant response rating, Sedge, Umbrella [11, 25]: 80
- Rice plant response rating [12]: 60
- Plant response rating, Velvetleaf [13, 20]: 90
- Velvetleaf plant response rating ([13]; 125 g ai/ha): 20
- Velvetleaf plant response rating ([13]; 500 g ai/ha): 70
- Plant response rating, Velvetleaf [13, 21]: 80
- Plant response rating, Crabgrass, Large [14, 20]: 70
- Crabgrass, Large plant response rating ([14]; 125 g ai/ha): 0
- Crabgrass, Large plant response rating ([14]; 500 g ai/ha): 0
- Plant response rating, Crabgrass, Large [14, 21]: 40
- Plant response rating, Barnyardgrass [15, 20]: 90
- Barnyardgrass plant response rating ([15]; 125 g ai/ha): 0
- Barnyardgrass plant response rating ([15]; 500 g ai/ha): 0
- Plant response rating, Barnyardgrass [15, 21]: 70
- Plant response rating, Rice [16]: 70
- Plant response rating, Surinam Grass [17, 20]: 70
- Surinam Grass plant response rating ([17]; 125 g ai/ha): 0
- Surinam Grass plant response rating ([17]; 500 g ai/ha): 20
- Plant response rating, Surinam Grass [17, 21]: 60
- Rice plant response rating [18, 22]: 60
- Rice plant response rating [18, 23]: 60
- Rice plant response rating [18, 24]: 80
- Plant response rating, Rice [18, 25]: 90
- Plant response rating, Pigweed [19, 20]: 100
- Pigweed plant response rating ([19]; 125 g ai/ha): 80
- Pigweed plant response rating ([19]; 500 g ai/ha): 80
- Plant response rating, Pigweed [19, 21]: 100

From patent US20060069132A1, “Azolecarboxamide herbicides” (priority 2004, published 2006)
